From the NIST ThermoML archive (doi:10.1016/j.tca.2012.08.009)

Experiments:
[1] = 298.15 K, 101 kPa, Liquid; for viscosity: Capillary tube (Ostwald / Ubbelohde) method; for speed of sound: Linear variable-path acoustic interferometer; for mass density: Vibrating tube method
[2] = refractive index (Na D-line) (dimensionless); settings: 298.15 K; 101.33 kPa; Liquid; Standard Abbe refractometry
[3] = wn = mass fraction of the nth substance listed; settings: 298.15 K, 101 kPa, Liquid; for viscosity: Capillary tube (Ostwald / Ubbelohde) method; for speed of sound: Linear variable-path acoustic interferometer; for mass density: Vibrating tube method
[4] = refractive index (Na D-line) (dimensionless); wn = mass fraction of the nth substance listed; settings: 298.15 K, 101 kPa, Liquid, Standard Abbe refractometry
[5] = cn = amount concentration of the nth substance listed, in mol/dm3; settings: 298.15 K, 101 kPa, Liquid; for molar conductivity: Alternating current cell with electrodes; for viscosity: Capillary tube (Ostwald / Ubbelohde) method; for speed of sound: Linear variable-path acoustic interferometer; for mass density: Vibrating tube method
[6] = refractive index (Na D-line) (dimensionless); cn = amount concentration of the nth substance listed, in mol/dm3; settings: 298.15 K, 101 kPa, Liquid, Standard Abbe refractometry

C1COCO1 [1,3-dioxolane]
Settings | mass density [kg/m3] | refractive index | speed of sound [m/s] | viscosity [mPa·s]
[1] | 1058.72 | – | 1338.9 | 0.597
[2] | – | 1.3974 | – | –

C1COCO1 [1,3-dioxolane] + CC#N
Settings | mass density, [3] [kg/m3] | refractive index, [4] | speed of sound, [3] [m/s] | viscosity, [3] [mPa·s]
w2 = 0 | 1058.72 | 1.3974 | 1338.9 | 0.597
w2 = 0.25 | 979.95 | 1.3835 | 1324.6 | 0.533
w2 = 0.5 | 909.57 | 1.3696 | 1310.2 | 0.471
w2 = 0.75 | 841.47 | 1.3557 | 1295.8 | 0.407

CC#N [acetonitrile]
Settings | mass density [kg/m3] | refractive index | speed of sound [m/s] | viscosity [mPa·s]
[1] | 776.74 | – | 1281.5 | 0.343
[2] | – | 1.3418 | – | –

CC#N [acetonitrile] + C1COCO1
w1 = 1
Settings | mass density [kg/m3] | refractive index | speed of sound [m/s] | viscosity [mPa·s]
[3] | 776.74 | – | 1281.5 | 0.343
[4] | – | 1.3418 | – | –

[Br-].[Li+] [lithium bromide] + C1COCO1
Settings | mass density [kg/m3] | molar conductivity [S·m2/mol] | refractive index | speed of sound [m/s] | viscosity [mPa·s]
[5], c1 = 2.686e-05 | – | 0.002392 | – | – | –
[5], c1 = 3.525e-05 | – | 0.002226 | – | – | –
[5], c1 = 4.178e-05 | – | 0.002164 | – | – | –
[5], c1 = 4.7e-05 | – | 0.002136 | – | – | –
[5], c1 = 5.127e-05 | – | 0.002128 | – | – | –
[5], c1 = 5.483e-05 | – | 0.002127 | – | – | –
[5], c1 = 5.868e-05 | – | 0.002129 | – | – | –
[5], c1 = 6.267e-05 | – | 0.002145 | – | – | –
[5], c1 = 6.635e-05 | – | 0.002167 | – | – | –
[5], c1 = 7.115e-05 | – | 0.002199 | – | – | –
[5], c1 = 7.52e-05 | – | 0.002233 | – | – | –
[5], c1 = 7.917e-05 | – | 0.002272 | – | – | –
[5], c1 = 0.0142 | 1058.79 | – | – | 1347.4 | 0.599
[5], c1 = 0.0284 | 1059 | – | – | 1366.8 | 0.603
[5], c1 = 0.0426 | 1059.29 | – | – | 1394.6 | 0.607
[5], c1 = 0.0569 | 1059.65 | – | – | 1430.9 | 0.612
[5], c1 = 0.0712 | 1060.05 | – | – | 1475.6 | 0.617
[5], c1 = 0.0855 | 1060.52 | – | – | 1531.8 | 0.622
[6], c1 = 0.0142 | – | – | 1.3984 | – | –
[6], c1 = 0.0284 | – | – | 1.3993 | – | –
[6], c1 = 0.0426 | – | – | 1.4001 | – | –
[6], c1 = 0.0569 | – | – | 1.4008 | – | –
[6], c1 = 0.0712 | – | – | 1.4014 | – | –
[6], c1 = 0.0855 | – | – | 1.402 | – | –

[Cl-].[Li+] [lithium chloride] + C1COCO1
Settings | mass density [kg/m3] | molar conductivity [S·m2/mol] | refractive index | speed of sound [m/s] | viscosity [mPa·s]
[5], c1 = 3.525e-05 | – | 0.003047 | – | – | –
[5], c1 = 3.871e-05 | – | 0.002972 | – | – | –
[5], c1 = 4.453e-05 | – | 0.002875 | – | – | –
[5], c1 = 4.924e-05 | – | 0.002803 | – | – | –
[5], c1 = 5.609e-05 | – | 0.00273 | – | – | –
[5], c1 = 6.159e-05 | – | 0.002693 | – | – | –
[5], c1 = 6.635e-05 | – | 0.002673 | – | – | –
[5], c1 = 7.162e-05 | – | 0.002663 | – | – | –
[5], c1 = 7.442e-05 | – | 0.002672 | – | – | –
[5], c1 = 7.691e-05 | – | 0.002715 | – | – | –
[5], c1 = 7.721e-05 | – | 0.002746 | – | – | –
[5], c1 = 7.779e-05 | – | 0.002778 | – | – | –
[5], c1 = 0.0142 | 1058.75 | – | – | 1344.6 | 0.597
[5], c1 = 0.0284 | 1058.9 | – | – | 1356.8 | 0.598
[5], c1 = 0.0426 | 1059.11 | – | – | 1373.9 | 0.601
[5], c1 = 0.0568 | 1059.4 | – | – | 1394.7 | 0.603
[5], c1 = 0.071 | 1059.75 | – | – | 1420.8 | 0.606
[5], c1 = 0.0852 | 1060.14 | – | – | 1451.4 | 0.608
[6], c1 = 0.0142 | – | – | 1.398 | – | –
[6], c1 = 0.0284 | – | – | 1.3988 | – | –
[6], c1 = 0.0426 | – | – | 1.3994 | – | –
[6], c1 = 0.0568 | – | – | 1.4 | – | –
[6], c1 = 0.071 | – | – | 1.4005 | – | –
[6], c1 = 0.0852 | – | – | 1.401 | – | –

[I-].[Li+] [lithium iodide] + C1COCO1
Settings | mass density [kg/m3] | molar conductivity [S·m2/mol] | refractive index | speed of sound [m/s] | viscosity [mPa·s]
[5], c1 = 8.17e-06 | – | 0.001792 | – | – | –
[5], c1 = 1.498e-05 | – | 0.000612 | – | – | –
[5], c1 = 2.075e-05 | – | 0.000192 | – | – | –
[5], c1 = 2.568e-05 | – | 0.000191 | – | – | –
[5], c1 = 2.997e-05 | – | 0.000418 | – | – | –
[5], c1 = 3.702e-05 | – | 0.000994 | – | – | –
[5], c1 = 4.495e-05 | – | 0.001751 | – | – | –
[5], c1 = 5.081e-05 | – | 0.00241 | – | – | –
[5], c1 = 5.66e-05 | – | 0.003074 | – | – | –
[5], c1 = 6.421e-05 | – | 0.003828 | – | – | –
[5], c1 = 6.958e-05 | – | 0.004382 | – | – | –
[5], c1 = 7.293e-05 | – | 0.004735 | – | – | –
[5], c1 = 0.0142 | 1058.82 | – | – | 1350.6 | 0.601
[5], c1 = 0.0284 | 1059.06 | – | – | 1377.7 | 0.607
[5], c1 = 0.0427 | 1059.4 | – | – | 1416.8 | 0.614
[5], c1 = 0.057 | 1059.82 | – | – | 1469.7 | 0.621
[5], c1 = 0.0714 | 1060.32 | – | – | 1539.7 | 0.628
[5], c1 = 0.0858 | 1060.86 | – | – | 1630.2 | 0.635
[6], c1 = 0.0142 | – | – | 1.3988 | – | –
[6], c1 = 0.0284 | – | – | 1.3997 | – | –
[6], c1 = 0.0427 | – | – | 1.4004 | – | –
[6], c1 = 0.057 | – | – | 1.4011 | – | –
[6], c1 = 0.0714 | – | – | 1.4018 | – | –
[6], c1 = 0.0858 | – | – | 1.4024 | – | –
